In the Kinase Knowledgebase extract (Sharma et al. 2016) one finds IC50 data, which are given here for 32 compounds.

“And” between values parts separate entries of the source, which are not always exact repeats. Identical values can stand only once.

This experiment deals with PIK3CD (Human) (UniProt O00329). The experiment is described as follows: Enzyme Assay.
Sequence of PIK3CD (Human) (O00329 whole entry, looked up): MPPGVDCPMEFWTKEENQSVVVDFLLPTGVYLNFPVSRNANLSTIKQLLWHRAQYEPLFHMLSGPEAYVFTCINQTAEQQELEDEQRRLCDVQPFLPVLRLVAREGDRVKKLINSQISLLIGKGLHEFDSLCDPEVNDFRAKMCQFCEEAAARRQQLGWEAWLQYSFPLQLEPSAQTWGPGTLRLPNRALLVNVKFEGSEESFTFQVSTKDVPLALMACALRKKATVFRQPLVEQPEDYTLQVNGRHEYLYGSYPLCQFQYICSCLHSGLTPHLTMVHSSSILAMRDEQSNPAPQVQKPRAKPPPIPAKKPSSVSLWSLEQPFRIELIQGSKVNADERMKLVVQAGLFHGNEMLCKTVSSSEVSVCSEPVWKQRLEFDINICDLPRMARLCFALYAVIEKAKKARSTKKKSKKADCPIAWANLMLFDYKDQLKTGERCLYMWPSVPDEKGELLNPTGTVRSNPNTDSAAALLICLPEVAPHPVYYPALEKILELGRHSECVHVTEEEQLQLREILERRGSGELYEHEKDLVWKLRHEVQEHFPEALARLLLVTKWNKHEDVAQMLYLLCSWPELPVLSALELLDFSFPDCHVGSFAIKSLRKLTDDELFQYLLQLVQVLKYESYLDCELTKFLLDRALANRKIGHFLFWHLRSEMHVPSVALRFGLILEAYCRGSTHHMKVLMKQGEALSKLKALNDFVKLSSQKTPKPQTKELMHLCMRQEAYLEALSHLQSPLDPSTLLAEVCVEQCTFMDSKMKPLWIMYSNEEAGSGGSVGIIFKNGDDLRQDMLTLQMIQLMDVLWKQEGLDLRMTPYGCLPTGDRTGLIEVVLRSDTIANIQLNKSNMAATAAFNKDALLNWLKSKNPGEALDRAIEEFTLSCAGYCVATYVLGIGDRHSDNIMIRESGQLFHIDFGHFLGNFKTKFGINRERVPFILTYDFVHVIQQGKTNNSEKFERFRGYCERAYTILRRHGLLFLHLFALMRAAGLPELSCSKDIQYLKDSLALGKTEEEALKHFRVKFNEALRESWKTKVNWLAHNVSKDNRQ
In turn, `CCn1ncc(-c2nc3c(O[C@H]4CCN(C(=O)c5coc(C)n5)C4)ncnc3n2C)c1C` showed an IC50 of 6.5 nM. The same measure for `CCn1c(-c2cnc(C)nc2)nc2c(O[C@H]3CN(C(=O)C4CC4)C[C@@H]3O)ncnc21`: 17 nM; for `CCn1ncc(-c2nc3c(O[C@H]4CCN(C(=O)c5c[nH]nc5C(F)(F)F)C4)ncnc3n2C)c1C`: 21 nM; for `Cc1ncc(-c2nc3c(O[C@H]4CCN(C(=O)OC(C)(C)C)C4)ncnc3n2C)n1C`: 28 nM.

As for `CCn1c(-c2ccc(OC)nc2)nc2c(O[C@H]3CCN(C(=O)C4CC4)C3)ncnc21`, the IC50 was 1 nM. In the case of `CCn1ncc(-c2nc3c(CC4CCN(C(=O)C5CCOCC5)C4)ncnc3n2C)c1C` (configuration not stated), the half-inhibitory concentration (IC50) came out at 290 nM.

`CCC(=O)N1CC[C@H](Oc2ncnc3c2nc(-c2ccc4[nH]ccc4c2)n3C)C1` gave an IC50 of 37 nM.

On to `CCn1ncc(-c2nc3c(O[C@H]4CCN(c5nccc6sccc56)C4)ncnc3n2C)c1C`, for which the IC50 worked out at 10 nM. To `CCn1c(-c2cnc(OC)nc2)nc2c(O[C@H]3CCN(C(=O)C4CC4)C3)ncnc21` belongs 6.3 nM; to `CCC(=O)N1CC[C@H](Oc2ncnc3c2nc(Oc2cccc(C)c2C)n3C)C1`, 2400 nM.

In turn, `CCn1c(-c2cnc(C)nc2)nc2c(OC3CCN(C(=O)N(C)c4ccccc4)CC3)ncnc21` registered an IC50 of 46 nM.

As for `Cn1c(-c2cncc3ccccc23)nc2c(O[C@H]3CCN(C(=O)OC(C)(C)C)C3)ncnc21`, the 50% inhibitory concentration (IC50) is 320 nM. `CCn1ncc(-c2nc3c(O[C@H]4CCN(S(=O)(=O)CC)C4)ncnc3n2C)c1C` showed a half-inhibitory concentration (IC50) of 200 nM. The compound `CCn1c(-c2cnc(C)nc2)nc2c(O[C@H]3CCN(C(=O)[C@H]4C[C@H]5CC[C@@H]4C5)C3)ncnc21` showed an IC50 of 1.2 nM. The same measure for `CCC(=O)N1CCC(Oc2ncnc3c2nc(-c2cnn(CC)c2C)n3C)CC1`: 800 nM; for `CCn1c(-c2cnc(C)nc2)nc2c(O[C@H]3CCN(C(=O)N4CC5CC5C4)C3)ncnc21` (some centres not stated): 5.7 nM. The same measure for `CCn1c(-c2cnc(C)nc2)nc2c(O[C@@H]3CCN(C(=O)N4CC(F)(F)C4)C3)ncnc21`: 5.9 nM; for `CCC(=O)N1CC[C@H](Oc2ncnc3c2nc(-c2ccc(OC)c(F)c2)n3C)C1`: 6.4 nM; for `CCn1ncc(-c2nc3c(O[C@H]4CCN(Cc5ccc[nH]5)C4)ncnc3n2C)c1C`: 440 nM.

`CCn1c(-c2cnc(C)nc2)nc2c(O[C@H]3CCN(C(=O)N(C)C4CC4)C3)ncnc21` had an IC50 of 28 nM. The same measure for `CCn1ncc(-c2nc3c(O[C@H]4CCN(C(=O)OCC(C)(C)C)C4)ncnc3n2C)c1C`: 28 nM; for `CCC(=O)N1CC[C@H](Oc2ncnc3c2nc(-c2cnc(OC)c(C#N)c2)n3C)C1`: 8.4 nM. To `CCC(=O)N1CC[C@H](Oc2ncnc3c2nc(C2CC2)n3C)C1` belongs 580 nM; to `CCn1ncc(-c2nc3c(O[C@H]4CCN(c5ncnc6c5cnn6C)C4)ncnc3n2C)c1C`, 120 nM; to `CC[C@@H]1CN(C(=O)C2CC2)C[C@H]1Oc1ncnc2c1nc(-c1cnc(C)nc1)n2CC.CC[C@H]1CN(C(=O)C2CC2)C[C@@H]1Oc1ncnc2c1nc(-c1cnc(C)nc1)n2CC`, 6.1 nM and 20 nM. On to `CCC(=O)N1CC[C@H](Oc2ncnc3c2nc(-c2cncc(N)c2)n3C)C1`, for which the IC50 turned out to be 5.7 nM. The same measure for `CCn1c(-c2cnc(OC)c(C(F)(F)F)c2)nc2c(O[C@H]3CCN(C(=O)C4CC4)C3)ncnc21`: < 1 nM; for `CCC(=O)N1CC[C@H](Oc2ncnc3c2nc(-c2ccc(S(C)(=O)=O)cc2)n3C)C1`: 300 nM; for `CCC(=O)N1CC[C@H](Oc2ncnc3c2nc(-c2ccc(OC)nc2)n3C)C1`: 10 nM. The same measure for `CCn1c(-c2cnc(C)nc2)nc2c(O[C@H]3CCN(C(=O)[C@H]4CC5CCN4C5)C3)ncnc21` (some centres not stated): 88 nM.

As for `CCn1c(-c2ccc(C(F)(F)F)cc2)nc2c(O[C@H]3CCN(C(=O)C4CC4)C3)ncnc21`, the IC50 was 3.4 nM. `CCC(=O)N1CC[C@H](Oc2ncnc3c2nc(-c2cnn(-c4ccccc4)c2)n3C)C1` came in with an IC50 of 6.5 nM.

A word on the IC50: it is the concentration at which inhibition is half-maximal. A lower IC50 goes with higher potency.
